Experimental data reported in US11202773B2, “Locally bioavailable drugs” (UNIVERSITY OF HOUSTON SYSTEM, priority 2015, dated 2021).
Where two headings read alike, the source gives them in different places.

What was measured:
mouse COX-2 = target: T1, mouse COX-2 (Mus musculus, UniProt Q05769); assay: COX-2 activity (PGD2/PGE2 production) in LPS-induced Raw264.7 cells; type: cell-based; conditions: 0.1 μg/mL LPS, 14 hours co-incubation
T1 construct: Raw264.7 is a mouse macrophage cell line which expresses a high level of COX-2 protein upon lipopolysaccharide (LPS) induction; endogenous in cells; host or cells: Raw264.7 (LPS-induced)
T1 sequence (Q05769 18-604): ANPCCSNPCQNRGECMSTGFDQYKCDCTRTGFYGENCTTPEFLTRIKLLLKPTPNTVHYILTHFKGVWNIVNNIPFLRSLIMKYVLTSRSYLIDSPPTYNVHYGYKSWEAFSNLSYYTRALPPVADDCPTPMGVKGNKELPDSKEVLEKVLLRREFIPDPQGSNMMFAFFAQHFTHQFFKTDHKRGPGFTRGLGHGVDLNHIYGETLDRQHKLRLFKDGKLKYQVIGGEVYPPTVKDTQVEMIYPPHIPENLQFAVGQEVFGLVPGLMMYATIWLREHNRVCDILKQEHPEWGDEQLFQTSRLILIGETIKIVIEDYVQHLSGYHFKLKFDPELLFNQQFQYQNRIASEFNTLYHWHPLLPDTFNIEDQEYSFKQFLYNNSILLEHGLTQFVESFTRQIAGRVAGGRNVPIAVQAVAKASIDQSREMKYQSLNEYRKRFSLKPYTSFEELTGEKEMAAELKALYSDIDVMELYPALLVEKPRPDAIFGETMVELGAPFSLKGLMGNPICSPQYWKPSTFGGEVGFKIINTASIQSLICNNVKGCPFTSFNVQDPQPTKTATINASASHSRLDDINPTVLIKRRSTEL
Method: (§1) First, the inhibitory effects of the new synthesized compounds on COX-2 were assayed in two cell lines: Raw264.7 cells and HCA-7 cells. Raw264.7 is a mouse macrophage cell line which expresses a high level of COX-2 protein upon lipopolysaccharide (LPS) induction. […] The concentration of prostaglandins (both PGD2 and PGE2) accumulated in the cell culture medium can be employed as an indicator of COX-2 activity. HCA-7 is a human colon cancer cell line in which COX-2 protein is constitutively expressed. Briefly, the cells were pre-incubated with different concentrations of the new compounds for 30 min, and then 10 μM A23187 (a calcium ionophore) was added to release membrane-bound arachidonic acid (the natural substrate of COX-2) to the cytosolic domain. The system was incubated for another 30 minutes and PGE2 concentrations in the culture medium were determined. In both cell lines, higher PGD2/PGE2 concentrations in the media meant more COX-2 activity.

human COX-2 [1] = target: T2, human COX-2 (Homo sapiens, UniProt P35354); assay: COX-2 activity (PGE2 production) in HCA-7 cells after A23187; type: cell-based; set-up: HCA-7 is a human colon cancer cell line in which COX-2 protein is constitutively expressed; endogenous in cells; host or cells: HCA-7; conditions: 30 min pre-incubation, 10 μM A23187, another 30 minutes
T2 sequence (P35354 18-604): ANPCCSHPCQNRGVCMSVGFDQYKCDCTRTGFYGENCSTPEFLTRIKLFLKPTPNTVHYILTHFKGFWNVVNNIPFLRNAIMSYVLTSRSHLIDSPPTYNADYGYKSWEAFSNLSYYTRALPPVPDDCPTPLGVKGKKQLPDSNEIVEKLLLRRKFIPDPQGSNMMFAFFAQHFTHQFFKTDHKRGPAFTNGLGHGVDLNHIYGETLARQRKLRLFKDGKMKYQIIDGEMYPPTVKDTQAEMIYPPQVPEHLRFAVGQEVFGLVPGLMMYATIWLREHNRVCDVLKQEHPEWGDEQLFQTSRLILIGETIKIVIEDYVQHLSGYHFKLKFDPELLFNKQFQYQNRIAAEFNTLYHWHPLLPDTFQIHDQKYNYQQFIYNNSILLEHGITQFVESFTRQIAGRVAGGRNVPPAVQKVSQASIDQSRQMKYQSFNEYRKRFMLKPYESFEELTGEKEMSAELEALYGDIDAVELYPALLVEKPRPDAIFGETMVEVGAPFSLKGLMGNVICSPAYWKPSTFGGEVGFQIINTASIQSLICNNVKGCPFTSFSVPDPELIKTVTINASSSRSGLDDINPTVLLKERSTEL
Method: as §1

rat liver microsomes = assay: Glucuronidation by rat liver microsomes; type: in vitro ADME
Method: (§2) FIG. 5A is a bar graph illustrating in vitro metabolism of phenolics via glucuronidation pathway. Glucuronidation rates of all the new locally bioavailable COX-2 inhibitors by rat liver microsomes. Additional metabolic rates of various locally bioavailable COX-2 inhibitors are in Table 3. […]. The incubation systems were: for glucuronidation, 0.88 mM magnesium chloride (MgCl2), 4.4 mM saccharolactone, 0.022 mg/mL alamethicin, 3.5 mM uridine 5′-diphospho-glucuronic acid (UDPGA), 10 μM substrates and different concentrations of microsomes in 50 mM potassium phosphate buffer (pH 7.4); for sulfation, 10 mM dithiothreitol (DTT), 5 mM MgCl2, 100 μM 3′-phosphoadenosine-5′-phosphosulfate (PAPS),10 μM substrate and different concentrations of S9 fractions in 50 mM potassium phosphate buffer (pH 7.4).
(§3) In vitro tools were employed to help predict the in vivo metabolism rates of the COX-2 inhibitors that are phenolics. The microsomes and S9 fractions prepared from colon or liver were used to determine the in vivo glucuronidation and sulfation rates of the phenolic compounds, respectively. By employing microsomes and S9 fractions prepared from both rats and humans, it could be determined if the results obtained in the rat model could be reasonably extrapolated to humans. In these experiments, raloxifene and genistein, two phenolic compounds which undergo extensive first-pass metabolism, were selected as controls.

rat colon microsomes = assay: Glucuronidation by rat colon microsomes; type: in vitro ADME
Method: as §2, with “5B” for “5A”, “glucuronidation” for “metabolism”, “in liver and colon microsomes of rats.” for “via glucuronidation pathway.”, “6a1-6a4” for “all the new locally bioavailable COX-2 inhibitors”, “and colon microsomes were measured.” for “microsomes.”, “(PAPS), 10” for “(PAPS),10”
as §3

human liver microsomes = assay: Glucuronidation by human liver microsomes; type: in vitro ADME
Method: as §2, with “FIG. 5D” for “FIG. 5A”, “of phenolics.” for “of phenolics via glucuronidation pathway.”, “of 6a1-6a4” for “of all the new locally bioavailable COX-2 inhibitors”, “by human” for “by rat”, “liver and intestinal” for “liver”, “Table 4.” for “Table 3.”
as §3

recombinant human COX-1 = recombinant human COX-1 (Homo sapiens, UniProt P23219); assay: In vitro enzyme assay, recombinant human COX-1; type: biochemical; conditions: read-out: IC50 against recombinant human COX-1
[2] = tested on: human intestine microsomes; assay: Glucuronidation by human intestine microsomes; type: in vitro ADME
Method: as §2, with “FIG. 5D” for “FIG. 5A”, “of phenolics.” for “of phenolics via glucuronidation pathway.”, “of 6a1-6a4” for “of all the new locally bioavailable COX-2 inhibitors”, “by human” for “by rat”, “liver and intestinal” for “liver”, “Table 4.” for “Table 3.”
as §3

human COX-2 [3] = target: T2, human COX-2; assay: In vitro enzyme assay, recombinant human COX-2 (PGE2 production); type: biochemical; conditions: read-out: IC50 against recombinant human COX-2
Description: FIG. 3A is a bar graph illustration of PGE2 production by recombinant human COX-2 enzyme in the presence of the new compounds. Less PGE2 production means inhibition of COX-2 enzyme.
FIG. 3B is a bar graph illustration of PGE2 production by recombinant human COX-2 enzyme in the presence of the metabolites of the new compounds. Less PGE2 production means inhibition of COX-2 enzyme.

human Colon S9 [4] = assay: Glucuronidation by human colon S9; type: in vitro ADME; conditions: substrate 10 μM
Method: as §2, with “FIG. 5D” for “FIG. 5A”, “of phenolics.” for “of phenolics via glucuronidation pathway.”, “of 6a1-6a4” for “of all the new locally bioavailable COX-2 inhibitors”, “by human” for “by rat”, “liver and intestinal” for “liver”, “Table 4.” for “Table 3.”
as §3, with “The microsomes and S9 fractions prepared from colon or liver were used to determine the in vivo glucuronidation and sulfation rates of the phenolic compounds, respectively.” left out

human Colon S9 [5] = assay: Sulfation by human colon S9; type: in vitro ADME; conditions: substrate 10 μM
Method: as §2, with “FIG. 5D” for “FIG. 5A”, “of phenolics.” for “of phenolics via glucuronidation pathway.”, “of 6a1-6a4” for “of all the new locally bioavailable COX-2 inhibitors”, “by human” for “by rat”, “liver and intestinal” for “liver”, “Table 4.” for “Table 3.”
as §3

rat liver S9 = assay: Sulfation by rat liver S9 fractions; type: in vitro ADME; conditions: substrate 10 μM
Method: as §2, with “FIG. 5C” for “FIG. 5A”, “via sulfonation” for “via glucuronidation”, “pathway. Sulfation” for “pathway. Glucuronidation”, “of 6a1-6a4” for “of all the new locally bioavailable COX-2 inhibitors”, “liver and colon S9 fractions.” for “liver microsomes.”, “μM 3′-phosphoadeno sine-5′-phosphosulfate” for “μM 3′-phosphoadenosine-5′-phosphosulfate”
as §3

human intestine S9 = assay: Sulfation by human intestine S9; type: in vitro ADME; conditions: substrate 10 μM
Method: as §2, with “FIG. 5D” for “FIG. 5A”, “of phenolics.” for “of phenolics via glucuronidation pathway.”, “of 6a1-6a4” for “of all the new locally bioavailable COX-2 inhibitors”, “by human” for “by rat”, “liver and intestinal” for “liver”, “Table 4.” for “Table 3.”
as §3

rat colon S9 = assay: Sulfation by rat colon S9 fractions; type: in vitro ADME; conditions: substrate 10 μM
Method: as §2, with “FIG. 5C” for “FIG. 5A”, “via sulfonation” for “via glucuronidation”, “pathway. Sulfation” for “pathway. Glucuronidation”, “of 6a1-6a4” for “of all the new locally bioavailable COX-2 inhibitors”, “liver and colon S9 fractions.” for “liver microsomes.”, “μM 3′-phosphoadeno sine-5′-phosphosulfate” for “μM 3′-phosphoadenosine-5′-phosphosulfate”
as §3

human liver S9 = assay: Sulfation by human liver S9; type: in vitro ADME; conditions: substrate 10 μM
Method: as §2, with “FIG. 5D” for “FIG. 5A”, “of phenolics.” for “of phenolics via glucuronidation pathway.”, “of 6a1-6a4” for “of all the new locally bioavailable COX-2 inhibitors”, “by human” for “by rat”, “liver and intestinal” for “liver”, “Table 4.” for “Table 3.”
as §3

recombinant human COX-1, sequence (P23219 24-599): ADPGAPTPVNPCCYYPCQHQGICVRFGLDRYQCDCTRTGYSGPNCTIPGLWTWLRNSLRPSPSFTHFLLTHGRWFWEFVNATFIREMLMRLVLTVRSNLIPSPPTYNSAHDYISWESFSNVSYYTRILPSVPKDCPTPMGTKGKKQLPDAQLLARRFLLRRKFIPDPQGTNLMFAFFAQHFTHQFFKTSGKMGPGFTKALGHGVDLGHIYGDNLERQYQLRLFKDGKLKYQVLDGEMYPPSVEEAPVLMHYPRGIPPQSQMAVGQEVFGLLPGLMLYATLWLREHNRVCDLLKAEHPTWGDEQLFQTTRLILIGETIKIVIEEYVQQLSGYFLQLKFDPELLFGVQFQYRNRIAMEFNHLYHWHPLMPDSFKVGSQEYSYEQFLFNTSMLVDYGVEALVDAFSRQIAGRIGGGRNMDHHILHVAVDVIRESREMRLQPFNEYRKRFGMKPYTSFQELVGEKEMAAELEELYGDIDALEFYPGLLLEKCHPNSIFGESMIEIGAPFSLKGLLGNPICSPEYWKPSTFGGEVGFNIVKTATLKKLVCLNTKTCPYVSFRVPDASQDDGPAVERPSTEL

Row | Structure (SMILES) | IC50 (mouse COX-2) [µM] | Glucuronidation rates by liver microsomes (Mean) (rat liver microsomes) [pmol/mg/min] | IC50 (recombinant human COX-1) [nM] | IC50 (human COX-2 [3]) [nM] | further results
1 | CCOC(=O)c1cc(-c2ccc(C)cc2)n(-c2ccc(S(N)(=O)=O)cc2)n1 [Compound 3a] | 0.071 ± 0.021 | – | – | – | IC50 (human COX-2 [1]): 0.149 ± 0.026 µM
2 | Cc1ccc(-c2cc(COc3ccc4c(=O)c(O)c(-c5ccccc5)oc4c3)nn2-c2ccc(S(N)(=O)=O)cc2)cc1 [Compound 6a4] | 0.303 ± 0.055 | 4763 | 16000 | 2590 | Glucuronidation by rat liver microsomes (FIG. 5A) (rat liver microsomes): rapidly glucuronidated; Glucuronidation rates by colon microsomes (Mean) (rat colon microsomes): 571 pmol/mg/min; Glucuronidation rates by liver microsomes (Mean) (human liver microsomes): 291 pmol/mg/min; IC50 (human COX-2 [1]): 0.162 ± 0.065 µM; Glucuronidation rates by intestine microsomes (Mean) [2]: 2134 pmol/mg/min
3 | NS(=O)(=O)c1ccc(-n2nc(COc3ccccc3O)cc2-c2ccccc2)cc1 [Compound 6b1] | – | 7453 | 197000 | 54500 | –
4 | COc1ccccc1COCc1cc(-c2ccc(C)cc2)n(-c2ccc(S(N)(=O)=O)cc2)n1 [Compound 7a3] | – | – | 19800 | 40.3 | –
5 | O=c1c(-c2ccc(O)cc2)coc2cc(O)cc(O)c12 [Genistein, reference compound] | – | – | – | – | Glucuronidation rates by liver microsomes (Mean) (rat liver microsomes; rat, substrate 10 μM): 2199 pmol/mg/min; Glucuronidation rates by colon microsomes (Mean) (rat colon microsomes; rat, substrate 10 μM): 142 pmol/mg/min; Sulfation rates by liver S9 (Mean) (rat liver S9): 77 pmol/mg/min; Sulfation rates by human intestine S9 (Mean) (human intestine S9): 46 pmol/mg/min; Glucuronidation rates by liver microsomes (Mean) (human liver microsomes; human, substrate 10 μM): 965 pmol/mg/min; Sulfation rates by colon S9 (Mean) (rat colon S9): 4 pmol/mg/min; Sulfation rates by liver S9 (Mean) (human liver S9): 24 pmol/mg/min; Glucuronidation rates by intestine microsomes (Mean) ([2]; human, substrate 10 μM): 4665 pmol/mg/min

Continued, in another order:

Row | IC50 (mouse COX-2) [µM] | Glucuronidation rates by liver microsomes (Mean) (rat liver microsomes) [pmol/mg/min] | IC50 (recombinant human COX-1) [nM] | IC50 (human COX-2 [3]) [nM] | Structure (SMILES) | further results
6 | 4.31 ± 0.629 | 4132 | 145000 | 207 | NS(=O)(=O)c1ccc(-n2nc(COc3cccc(O)c3)cc2-c2ccccc2)cc1 [Compound 6b2] | –
7 | 0.033 ± 0.004 | 656 | 28 | 2250 | NS(=O)(=O)c1ccc(-n2nc(COc3ccc(O)cc3)cc2-c2ccccc2)cc1 [Compound 6b3] | –
8 | – | 7026 | 19800 | 40.3 | COc1ccc(-c2cc(COc3ccccc3O)nn2-c2ccc(S(N)(=O)=O)cc2)cc1 [Compound 6c1] | –
9 | 2.38 ± 0.502 | 3092 | 1100 | 353 | COc1ccc(-c2cc(COc3cccc(O)c3)nn2-c2ccc(S(N)(=O)=O)cc2)cc1 [Compound 6c2] | –
10 | 0.019 ± 0.002 | 934 | 12600 | 623 | COc1ccc(-c2cc(COc3ccc(O)cc3)nn2-c2ccc(S(N)(=O)=O)cc2)cc1 [Compound 6c3] | –
11 | – | 1050 | 4900 | 1.11 | Cc1ccc(-c2cc(COCc3ccccc3O)nn2-c2ccc(S(N)(=O)=O)cc2)cc1 [Compound 7a1] | Glucuronidation rates by human Colon S9 (Mean) (human Colon S9 [4]): 190 pmol/mg/min; Glucuronidation rates by colon microsomes (Mean) (rat colon microsomes): 160 pmol/mg/min; Glucuronidation rates by liver microsomes (Mean) (human liver microsomes): 2510 pmol/mg/min; Sulfation rates by human Colon S9 (Mean) (human Colon S9 [5]): 40 pmol/mg/min
